Results: patent publication US20240209355A1, “NUCLEIC ACID BINDING PROTEIN FORMULATIONS AND USES THEREOF” (Spotlight Therapeutics, priority 2020, published 2024)
Values joined by “and” are separate entries in the source; they are usually repeats but may differ in a detail not shown here. Equal values may be shown once.

What was measured:
dsDNA target = assay: In vitro DNA cleavage of TAGE agent RNPs with re-folded or unfolded sgRNA; type: biochemical; conditions: PBS, relative to Cas9(C80A)-2×NLS
Procedure: To assess DNA cleavage, 100 nM of each Cas9 RNP was incubated for 30 minutes at 37° C. with 100 nM of a dsDNA target. DNA cleavage was normalized to DNA cleavage achieved through incubation in buffer alone (i.e., untreated RNP). 1 μl of 20 mg/ml proteinase K was added to the reaction and incubated for 15 minutes at 50° C. The quenching reaction was held at 4° C. prior to separation on a Fragment Analyzer capillary electrophoresis (CE) instrument. 2 μl of the reaction was diluted with 22 μl of TE buffer and analyzed by capillary electrophoresis, per the manufacturer's recommendations. Cleavage reactions were run in triplicate, and background was subtracted from the band intensities. Percent cleavage was quantified with the following equation: % cleavage=(total mass cleaved product)/(total mass of substrate). The results are expressed as % cleavage relative to untreated RNP.
Next, the impact of re-folded gRNA on the in vitro DNA cleavage activity of TAGE agent RNPs was assessed.

primary human T cells [1] = assay: Editing by TAGE after pre-incubation of cells with inhibitors, loss of surface CD47 by flow cytometry; type: cell-based; conditions: 30 min pre-incubation; for editing of primary T cells by an antibody TAGE: Dynasore 80 μM; for editing of primary T cells by TAGE: DMA, EIPA 100 μM, Cyto D 20 μM, Lat A 10 μM, 3 μM TAGE26, 0.35 μM AB27-TAGE26 or AB2-TAGE26
Procedure: Antibodies were conjugated to Cas9 using the SpyTag2/SpyCatcher system and a guide RNA targeting CD47 was associated with the respective TAGE agents to form RNPs. Primary human T cells were pre-incubated with the indicated drug for 30 minutes. Then, RNPs were added to the cells at the indicated concentration and co-incubated for an additional hour. The cells were washed after one hour to remove inhibitors and RNPs. The percentage of cells that were edited under each condition was measured using a phenotypic readout detecting the loss of surface CD47 by flow cytometry.
Each data point represents a biological replicate. For each group, the horizontal line represents the mean and the error bars represent the standard deviation of the mean. With respect to the descriptions in FIG. 18, NT guide is a TAGE with non-targeting guide RNA; MeOH is methanol (a control for DMA and EIPA; used at 0.5% v/v; DMSO is dimethyl sulfoxide, a control for Cyto D and Lat A (used at 1% v/v); DMA is 5-(N,N-dimethyl)-amiloride, an inhibitor of NHE1 (used at 100 μM); EIPA is 5-(N-ethyl-N-isopropyl)-amiloride, an inhibitor of NHE1, (used at 100 μM); Cyto D is cytochalasin D, an inhibitor of F-actin polymerization (used at 20 μM); and Lat A is latrunculin A, an inhibitor of F-actin polymerization (used at 10 μM).
Antibodies were conjugated to Cas9 using the SpyTag/SpyCatcher system and a guide RNA targeting CD47 was associated with the respective TAGE agents to form an RNP. Primary human T cells were pre-incubated with the indicated drug (nystatin or Dynasore) for 30 minutes. Then, RNPs were added to cells at the indicated concentration and co-incubated for an additional hour. The cells were washed after one hour to remove inhibitors and RNPs. The percentage of cells that were edited under each condition was measured using a phenotypic readout detecting the loss of surface CD47 by flow cytometry. Each data point represents a biological replicate. For each group, the horizontal line represents the mean and the error bars represent the standard deviation of the mean. NT guide stood for TAGE with non-targeting guide RNA. DMSO is dimethylsulfoxide, a control for nystatin and Dynasore, which was used at 2% v/v. Dynasore is an inhibitor of dynamin, which was used at 80 μM. Nystatin was used at 108 μM.

primary human T cells [2] = assay: Ex vivo editing by co-incubation in buffers with additives, loss of surface CD47 by flow cytometry; type: cell-based; conditions: for genome editing (percentage of edited T cells): 1 hour, increasing NaCl (185-400 mM) and/or glycerol (1-15% w/v); for combined effect of glycerol and sodium chloride on genome editing: e.g. 300 mM NaCl with 12.5% glycerol; for TAGE editing efficacy: additive in combination with NaCl
Procedure: In this example, the impact of glycerol and salt on ex vivo editing by TAGE agents was assessed. Ribonucleoproteins were prepared from TAGE agents including 4×NLS-Cas9-2×NLS. A guide RNA targeting CD47 was associated with the respective TAGE agents to form ribonucleoproteins. […] The cells were washed after one hour to remove the additives and RNPs. The percentage of T cells that were edited under each condition was measured using a phenotypic readout detecting the loss of surface CD47 by flow cytometry. Additionally, the levels of live cells per mL 24 hours after co-incubation in the indicated buffer was assessed for each buffer condition.
In this example, the impact of salt and various polyols (e.g., sugar alcohols) or sugar on ex vivo editing by TAGE agents was assessed. Ribonucleoproteins were prepared from TAGE agents including 4×NLS-Cas9-2×NLS. A guide RNA targeting CD47 was associated with the respective TAGE agents to form ribonucleoproteins. […] Buffers having different salt concentrations (185 mM NaCl or 300 mM NaCl) and sugar alcohol or sugar concentrations ([…], 0.8 M, 1.2 M, 1.6 M, 2.0 M, or 2.4 M) were assessed. The cells were washed after one hour to remove additives and RNPs. The percentage of cells that were edited under each condition was measured using a phenotypic readout detecting the loss of surface CD47 by flow cytometry. Additionally, the levels of live cells per mL 24 hours after co-incubation in the indicated buffer was assessed for each buffer condition.
In this example, the impact of a cationic polymer (e.g., protamine) with or without glycerol on ex vivo editing by RNP TAGE agents was assessed. Ribonucleoproteins were prepared from TAGE agents including 4×NLS-Cas9-2×NLS or AsCas12a. A guide RNA targeting CD47 was associated with the respective TAGE agents to form ribonucleoproteins. […] The cells were washed after one hour to remove additives and RNPs. The percentage of T cells that were edited under each condition was measured using a phenotypic readout detecting the loss of surface CD47 by flow cytometry. Additionally, the levels of light scattering at 340 nm was assessed to detect aggregate formation. […]

primary human T cells [3] = assay: Editing by antibody TAGE or CPP-TAGE in T cell media with sugar, sugar alcohol or salt additive, loss of surface CD47 by flow cytometry; type: cell-based
Procedure: RNPs at the indicated concentration were co-incubated with primary human T cells for 1 hour in buffer including 0.5 M sucrose. The cells were washed after one hour to remove additives and RNPs. The editing percentage under each condition was measured using a phenotypic readout detecting the loss of surface CD47 by flow cytometry.
Five different TAGE agent were tested. […] The cells were washed after one hour to remove additives and RNPs. The percentage of cells that were edited under each condition was measured using a phenotypic readout detecting the loss of surface CD47 by flow cytometry. Each data point represents the mean of biological triplicates, and the error bars represent the standard deviation of the mean.
The cells were washed after one hour to remove additives and RNPs. The percentage of cells that were edited under each condition was measured using a phenotypic readout detecting the loss of surface CD47 by flow cytometry. Each data point represents a biological replicate. […]
RNP at the indicated concentration was co-incubated with primary human T cells for 1 hour in T cell media with no additive (Baseline) or in T cell media with 0.5 M sucrose. […] The percentage of cells that were edited under each condition was measured using a phenotypic readout detecting the loss of surface CD47 by flow cytometry. […]

[4] = Light scattering at 340 nm to detect aggregate formation with protamine; type: physicochemical; conditions: protamine in buffer
Procedure: In this example, the impact of a cationic polymer (e.g., protamine) with or without glycerol on ex vivo editing by RNP TAGE agents was assessed. Ribonucleoproteins were prepared from TAGE agents including 4×NLS-Cas9-2×NLS or AsCas12a. A guide RNA targeting CD47 was associated with the respective TAGE agents to form ribonucleoproteins. […] The cells were washed after one hour to remove additives and RNPs. The percentage of T cells that were edited under each condition was measured using a phenotypic readout detecting the loss of surface CD47 by flow cytometry. Additionally, the levels of light scattering at 340 nm was assessed to detect aggregate formation.

T cells = assay: Ex vivo editing with chloroquine, loss of surface CD47 by flow cytometry; type: cell-based, human; conditions: chloroquine 10, 30 or 100 μM for 24 hours after 1 hour RNP co-incubation with PBMCs, vs 0 μM
Procedure: FIG. 9 graphically depicts the results of an ex vivo editing assay in which TAGE agents including Cas9-2×NLS:sgBFP, 4×NLS-Cas9-2×NLS, Cas9-2×NLS-SpyCatcher-4×NLS, or IL-2[-SpyTag]:Cas9-2×NLS-SpyCatcher-4×NLS were co-incubated with primary human T cells and assessed for editing in buffers including different levels of chloroquine (0 μM, 10 μM, 30 μM, or 100 μM). A guide RNA targeting CD47 was associated with the respective TAGE agents to form ribonucleoproteins, and the ribonucleoproteins were co-incubated with T cells to test for editing. Editing was measured using a phenotypic readout measuring the loss of surface CD47 using flow cytometry.
In this example, the impact of chloroquine on ex vivo editing by TAGE agents was assessed. RNP TAGE agents including Cas9-2×NLS:sgBFP, 4×NLS-Cas9-2×NLS, Cas9-2×NLS-SpyCatcher-4×NLS, or IL-2-SpyTag:Cas9-2×NLS-SpyCatcher-4×NLS. A guide RNA targeting CD47 (or a non-targeting control, sgBFP) was associated with the respective TAGE agents to form the ribonucleoproteins. The RNPs were co-incubated with PBMCs for 1 hour followed by incubation with 0 μM chloroquine, 10 μM chloroquine, 30 μM chloroquine, or 100 μM chloroquine for 24 hours. The percentage of T cells that were edited by each TAGE was measured using a phenotypic readout detecting the loss of surface CD47 by flow cytometry.

With “4×NLS-Cas9(C80A)-2×NLS: TAGE agent: Cas9(C80A) with four N-terminal and two C-terminal NLS” as the molecule, how does the DNA cleavage activity (dsDNA target) read?
The DNA cleavage activity was “reduced activity in PBS”.

Which “editing of primary T cells by an antibody TAGE” value (primary human T cells [1]; nystatin 108 μM) does the source give for `O=C(N/N=C/c1ccc(O)c(O)c1)c1cc2ccccc2cc1O` [dynasore, Dynasore] here?
The value was “not increased”.

With `CN(C)c1nc(N)c(C(=O)NC(=N)N)nc1Cl` [DMA, 5-(N,N-dimethyl)-amiloride] as the molecule, how does the “editing of primary T cells by TAGE” value (primary human T cells [1]) read?
The value was “increased”.

For `OCC(O)CO` [glycerol], which “genome editing (percentage of edited T cells)” value (primary human T cells [2]; 3.75 μM 4×NLS-Cas9-2×NLS RNP) is on record?
Its value is “increased genome editing in cells”.

What about the “combined effect of glycerol and sodium chloride on genome editing” value (primary human T cells [2]; 3.75 μM 4×NLS-Cas9-2×NLS RNP) of the same molecule?
Its value is “synergistic effect on genome editing”.

And the TAGE editing efficacy (primary human T cells [2]; 3.75 μM 4×NLS-Cas9-2×NLS RNP)?
The TAGE editing efficacy was “can increase TAGE editing efficacy”.

What about the “glycerol concentration at peak editing ex vivo” value (primary human T cells [2]; human T cells, depending on the TAGE and the salt concentration) of the same molecule?
The value was 7-10% and 15-16%.

For poly-glutamic acid [PGA], which editing by co-incubation (primary human T cells [2]; 3.75 μM Cas9 or AsCas12a RNP, PGA 1500-5500 Da or 15,000 Da, also at lower concentrations) is on record?
The editing by co-incubation was “inhibited editing by co-incubation”.

What does the source list for `OC[C@H]1O[C@@](CO)(O[C@H]2O[C@H](CO)[C@@H](O)[C@H](O)[C@H]2O)[C@@H](O)[C@@H]1O` [sucrose]?
TAGE editing efficacy (primary human T cells [2]; 3.75 μM 4×NLS-Cas9-2×NLS RNP): can increase TAGE editing efficacy; lowest TAGE concentration at which editing is enabled (primary human T cells [3]; 0.5 M sucrose): 0.7 nM; effect of additive on editing (primary human T cells [3]; 0.5 M sucrose as formulation additive): improves editing

For protamine, which “aggregation of Cas12a (340 nm light scattering)” value [4] is on record?
The value was “did not cause appreciable Cas12a aggregation”.

What about the “aggregation of 4×NLS-Cas9-2×NLS (340 nm light scattering)” value ([4]; low glycerol concentrations) of the same molecule?
The value was “caused aggregation”.

What about the “editing by Cas12a” value (primary human T cells [2]; protamine in buffer) of the same molecule?
Its value is “limited benefits for Cas12a editing”.

What about the “editing by 4×NLS-Cas9-2×NLS” value (primary human T cells [2]; protamine in buffer, low glycerol concentrations) of the same molecule?
The value was “increased editing”.

Which results are given for `C[C@@H]1[C@H](O)[C@@H](C)/C=C/C=C/CC/C=C/C=C/C=C/C=C/C(O[C@H]2O[C@H](C)[C@@H](O)[C@H](N)[C@@H]2O)CC2O[C@](O)(CC(O)C(O)CCC(O)CC(O)CC(O)CC(=O)O[C@H]1C)CC(O)C2C(=O)O` (stereo partly shown) [nystatin]?
editing by TAGE containing a non-targeting antibody (AB27-TAGE26) (primary human T cells [1]; nystatin 108 μM): did not increase editing; editing of primary T cells by an antibody TAGE (primary human T cells [1]; nystatin 108 μM): increased

With `CCN(CC)CCCC(C)Nc1ccnc2cc(Cl)ccc12` (stereo not shown) [chloroquine] as the molecule, how does the “editing of T cells by TAGE RNPs” value (T cells) read?
The value was “increased editing of T cells”.

With `OC[C@@H](O)[C@H](O)[C@@H](O)CO` [xylitol] as the molecule, how does the “percentage of edited cells” value (primary human T cells [2]; 3.75 μM 4×NLS-Cas9-2×NLS RNP, 300 mM NaCl and ≥1 M xylitol) read?
The value was “over 50%”.

And the TAGE editing efficacy (primary human T cells [2]; 3.75 μM 4×NLS-Cas9-2×NLS RNP)?
The TAGE editing efficacy was “can increase TAGE editing efficacy”.

Which “editing of primary T cells by TAGE” value (primary human T cells [1]) does the source give for `C=C1[C@@H](C)[C@H]2[C@H](Cc3ccccc3)NC(=O)[C@]23[C@H](OC(C)=O)/C=C/[C@@](C)(O)C(=O)[C@@H](C)C/C=C/[C@H]3[C@@H]1O` [Cyto D, cytochalasin D] here?
The value was “decreased”.

Which “editing of primary T cells by TAGE” value (primary human T cells [1]) does the source give for `C/C1=C/C(=O)O[C@@H]2C[C@@H](CC[C@H](C)/C=C\C=C\CC1)O[C@@](O)([C@@H]1CSC(=O)N1)C2` [Lat A, latrunculin A] here?
The value was “decreased”.

For `CCN(c1nc(N)c(C(=O)N=C(N)N)nc1Cl)C(C)C` [EIPA, 5-(N-ethyl-N-isopropyl)-amiloride], which “editing of primary T cells by TAGE” value (primary human T cells [1]) is on record?
The value was “increased”.

With `[Cl-].[Na+]` [sodium chloride] as the molecule, how does the “genome editing (percentage of edited T cells)” value (primary human T cells [2]; 3.75 μM 4×NLS-Cas9-2×NLS RNP) read?
Its value is “increased genome editing in cells”.

What about the “combined effect of glycerol and sodium chloride on genome editing” value (primary human T cells [2]; 3.75 μM 4×NLS-Cas9-2×NLS RNP) of the same molecule?
The value was “synergistic effect on genome editing”.
